This note sets out measurements from patent US20100247564A1, “METHODS AND COMPOSITIONS FOR THE USE OF SARGASSUM FUSIFORME FOR THE INHIBITION OF HIV-1 INFECTION” (priority 2007, published 2010).

The term inhibition denotes the share of the control response that was lost under treatment.

Series [1] relates to HIV-1 (NL4-3) cell-to-cell fusion. The series is described as follows: Cell-to-cell infection and syncytia formation in co-culture (infected CEM/1G5; infected 1G5/GHOST). To be noted: only 10^−6 M ddC.
The subject of series [2] is CXCR4 tropic HIV-1 (NL4-3). Kind of series: HIV-1 (NL4-3) replication in 1G5 T cells, luciferase expression. It is filed as cell-based.
Series [3] deals with 1G5 T cells. Kind of series: Viability of HIV-1 infected 1G5 T cells (MTT uptake, trypan blue exclusion). The note with it: 10^−6 M ddC. Type of series: cell-based. As to the method:
FIGS. 2A-B show the dose response of HIV-1 inhibition and cell viability in T cells treated with S. fusiforme. […] The cells were washed 3 times and then returned to culture. On day 3 after infection, intracellular luciferase gene marker expression was measured from cell lysates adjusted to the same number of viable cells using an MTT assay (A).
FIGS. 3A-B show the time course of HIV-1 inhibition and viability in T cells. […] Cell viability was determined by trypan blue exclusion assay (B).
Next, we investigated the ability of S. fusiforme extracts to inhibit HIV-1 infection in 1G5 T cells. […] On day 3 after infection, equal numbers of viable cells were analyzed for intracellular luciferase expression and cell viability was measured using an MTT uptake assay (FIG. 2). HIV-1 inhibition was calculated by comparing treated and untreated cell cultures (both infected with HIV-1). […] Treatment with ddC blocked virus replication by over 98%. In parallel, we tested for MTT uptake by viable cells, which remained high regardless of the concentration of S. fusiforme extract used in treatment (FIG. 2B).
Infection was monitored by luciferase expression at specific time points after infection (FIG. 3A). […] Treatment with 2 mg/ml of S. fusiforme inhibited infection by 77, 99, and 99% on days 3, 5, and 7, respectively (FIG. 3A). Inhibition by ddC was 99% at each time point tested. […]

Series [4] relates to primary CCR5-tropic isolate ADA. The series is described as follows: HIV-1 ADA infection of microglia, p24 ELISA. To be noted: Human immunodeficiency virus 1, Microglia, 72 h.
Protocol: Either macrophages (A) or microglia (B) were treated for 24 hours with 1 mg/ml S. fusiforme or with 10^−6 M ddC, infected with primary CCR5-tropic isolate ADA at 0.2 pg of p24/cell for 2 hours, washed 3 times, and returned to culture. At the indicated time points after infection, HIV-1 expression was monitored by p24 production in cell-free supernatants by ELISA and the percent inhibition was calculated and plotted on the Y-axis.
Next, we treated fetal microglial cell cultures with either 1 mg/ml of S. fusiforme or 10^−6 M ddC and monitored infection kinetics by p24 production in cell-free supenatants at the indicated time points after infection (FIG. 5B).
Series [5] has as its system cell fusion (anti-HIV activity). Kind of series: Inhibition of cell fusion by individual fatty acids. To be noted: Human immunodeficiency virus 1, read-out: percentage of inhibition of cell fusion; for inhibition at 1 µg/mL: 1 μg/ml; for inhibition at 5 µg/mL: 5 μg/ml. Type of series: cell-based. The protocol:
Anti-HIV activity of the individual fatty acids was tested at four different concentrations. The values given in Table 1 represent the percentage of inhibition of cell fusion in the presence of each fatty acid.

In series [6] the target is T1, recombinant HIV-1 RT (Human immunodeficiency virus type 1 group M subtype B, UniProt P04585).
T1 construct: recombinant HIV-1 RT; purchased Ambion
Kind of series: Cell-free fluorescent reverse transcriptase (RT) assay. Type of series: biochemical. The note with it: 2-fold serial dilutions, two units recombinant HIV-1 RT.

The target of series [7] is T2, S100A12 (Homo sapiens, UniProt P80511).
T2 sequence (P80511 1-92): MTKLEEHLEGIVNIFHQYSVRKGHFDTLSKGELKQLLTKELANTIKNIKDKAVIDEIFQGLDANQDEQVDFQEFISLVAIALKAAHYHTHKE
Kind of series: Dot blot binding of 14C-labeled PA to S100A12. The note with it: 100 μM 14C-PA. As to the method:
(§1) FIGS. 14A-C show the inhibition of HIV-1 fusion and CD4 interaction upon PA treatment. […] The percent of infected cells is indicated inside each quadrant. Cells were loaded with CCF2/AM dye and fusion was analyzed by multiparameter flow cytometry using a violet laser for excitation of CCF, and gated from 10,000 cells. […] The percent inhibition was plotted on the y-axis. […] The dot-blot membrane was washed and exposed to film, which was then scanned and the dot-blot total pixel mean value (intensity*mm^2) was quantified and plotted on the y-axis.
(§2) To further test this hypothesis and reveal a possible physical interaction between PA and sCD4, we performed dot blot analysis with ^14C-labeled PA (^14C-PA) incubated together with increasing concentrations of sCD4, ubiquitin, or S100A12 proteins (FIG. 14C). PVDF membrane (BioRad) was pretreated with 100 μM PA for 1 hour at room temperature (RT). Indicated concentrations of each protein in 10 μl/well were run through the vacuum of the dot blot apparatus. The membrane was then incubated with 100 μM ^14C-labeled PA (^14C-PA) in 33% ethanol for 1 hour at room temperature, and then washed in 33% ethanol and exposed to film. Blot total pixel mean value intensity was quantified by Quantity One 4.6.1 software (BioRad).

In series [8] the target is T3, sCD4 (Homo sapiens, UniProt P01730).
T3 construct: soluble CD4 (sCD4) protein; purchased Progenics Pharmaceuticals
The series is described as follows: Dot blot binding of 14C-labeled PA to sCD4. The note with it: 100 μM 14C-PA, increasing concentrations of sCD4. As to the method:
as §1, §2

Series [9] concerns the target ubiquitin (Homo sapiens, UniProt P0CG47). Kind of series: Dot blot binding of 14C-labeled PA to ubiquitin. To be noted: 100 μM 14C-PA. The protocol:
as §1, §2

Series [10] deals with T3, sCD4. The series is described as follows: Saturation transfer difference NMR (STD-NMR) binding to sCD4. To be noted: NMR buffer with 20% d6-DMSO, room temperature. The protocol:
FIGS. 15A-E show in vitro binding experiments of sCD4 with PA. FIG. 15A is a homonuclear NMR spectrum of 100 μM PA in the NMR buffer (10 mM KPO4 buffer, pH 7.0, 20% d6-DMSO, and 80% D2O). […] Tryptophan fluorescence was measured using an excitation wavelength of 280 nm. An increase of PA causes a red shift of 2 nm and quenching of the tryptophan fluorescence of sCD4.
We used a one-dimensional saturation transfer difference NMR (STD-NMR) experiment to characterize the binding of PA to sCD4 in vitro. […]
To perform the STD-NMR experiment, we used commercially available sCD4 (200 μg, 4.4 nmol, Progenics Pharmaceuticals), which was exchanged into the NMR buffer (160 μl of D2O and 40 μl d6-DMSO, containing 10 mM KPO4 buffer, pH 7.0). […] The NMR data were processed and analyzed using Topspin 2.0 (Bruker).
During the STD-NMR experiment, we titrated increasing concentrations of PA into sCD4 solution, and observed PA binding to sCD4, as shown by an increase in the intensity of the ligand STD-NMR signal (FIGS. 15A and 15B). The intensity of the STD signal was quantified by calculating the difference between the intensity of one signal in the off-resonance NMR spectrum, or reference NMR spectrum (I0), and the intensity of a signal in the on-resonance NMR spectrum (Isat) for various concentrations of the ligand (FIG. 15C). […]

Series [11] deals with BlaM-Vpr-X4-tropic NL4-3. The series is described as follows: microbe, parasite or virus in culture. Type of series: cell-based, HIV-1.
The mark [12] stands for this setting: Human immunodeficiency virus 1, NL43, SUP-T1, read-out: inhibition of fusion.

Like-named read-outs stand apart in the source and are kept apart here.

As to `Nc1ccn([C@H]2CC[C@@H](CO)O2)c(=O)n1` [ddC, 2′,3′-didoxycytidine], in [1], the “inhibition of luciferase expression” value is 69%. Moreover, the virus replication blocked entry in series [2] (10^−6 M ddC, day 3 after infection) is “over 98%”. Also, the inhibition at 1 µM in [2] (Human immunodeficiency virus 1, NL43, T-cell, read-out: inhibition of infection) is 99%; in series [4] (read-out: virus inhibition, 10^−6 M ddC, after day 3) it was above 90%; in series [4] (read-out: virus inhibition, 10^−6 M ddC, day 3) it was 72%. This compound came in with a luciferase expression in series [2] (ddC control culture, mock-treated 29,601 RLU) of 587 RLU. Moreover, in [3], the “cell viability compared with S. fusiforme-treated cultures” value was “similar”.
In the case of `CCCCCCCC/C=C\CCCCCCCC(=O)O` [Oleic acid, oleic acid], in [5], the inhibition at 1 µg/mL worked out at 0% and the inhibition at 5 µg/mL came to 0%. In addition, in [6], the “RT inhibition (in words)” value is on record as “potent RT inhibitors”.
In the case of `CCCCC/C=C\C/C=C\CCCCCCCC(=O)O` [Linoleic acid, linoleic acid], in series [5], the inhibition at 1 µg/mL was 0% and the inhibition at 5 µg/mL amounted to 0%. In addition, the “RT inhibition (in words)” value in series [6] is on record as “potent RT inhibitors”.
On to `CCCCCCCCCCCCCCCC(=O)O` [^14C-PA], for which the “binding to S100A12 (dot blot)” value in series [7] is reported as “did not bind”. Further, the “binding to sCD4 (dot blot)” value in series [8] was “dose-dependent”. Besides, the “binding to ubiquitin (dot blot)” value in series [9] is recorded as “did not bind”.
As for `CCCCCCCCCCCCCC(=O)O` [Myristic acid, myristic acid], in series [5], the inhibition at 1 µg/mL worked out at 8.8% and the inhibition at 5 µg/mL stood at 26.4%. The “STD-NMR signal on titration into sCD4 solution” value in [10] is on record as “No STD-NMR signal was observed”.
Consider `c1cc(CN2CCCNCCNCCCNCC2)ccc1CN1CCCNCCNCCCNCC1` [AMD3100, reference compound], for which the fusion positive cells in series [11] (250 nM AMD3100, 51.5% without treatment) was found to be 28.7%. Moreover, the virus-positive cells in series [11] (AMD3100 in the PA experiment, 37.6% untreated) was 2.8%. For the same compound, in [11] (setting [12]), the inhibition at 0.25 µM was 44.5% and the inhibition at 0.5 µM came out at 80%.
